Data published in ChEMBL document CHEMBL1124305, “Synthesis and immunological evaluation of N-terminal, noncrossreactive tachykinin antigens” (J Med Chem, 1988).
Active and inactive are the calls of the source. The calls are words filed in the database; no cut-off is given here.

Tests used:
Format in all cases: functional, organism-based
[1] = species: Mus musculus; assay: Determination of serum specificity with immunogen 2-MBSA in ELISA against the respective tachykinins of mice; +++ indicates Strong recognition
[2] = species: Mus musculus; assay: Determination of serum specificity with immunogen 3-MBSA in ELISA against the respective tachykinins of mice; - indicates Nondetectable interaction
[3] = species: Mus musculus; assay: Determination of serum specificity with immunogen 1-MBSA in ELISA against the respective tachykinins of mice; - indicates Nondetectable interaction

CSCC[C@H](NC(=O)[C@H](CC(C)C)NC(=O)CNC(=O)[C@@H](NC(=O)[C@H](Cc1ccccc1)NC(=O)[C@H](CO)NC(=O)[C@H](CC(=O)O)NC(=O)[C@@H](NC(=O)[C@H](CCCCN)NC(=O)[C@@H](N)Cc1c[nH]cn1)[C@@H](C)O)C(C)C)C(N)=O
Specificity [1]: Active | Specificity [2]: inactive | Specificity [3]: inactive
